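Values below derive from 48-hour exposures of cells grown in 96-well plates, with endpoints linearly interpolated between the two concentrations bracketing the appropriate inhibition level. GI50 is the concentration that inhibits growth by half.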 Active and inactive are the calls of the source. Rule as the data show it: active = GI50 up to about 1.1 µM and inactive = higher.

Holding throughout (experiment): NCI tumour cell line growth inhibition, 48 h
Assay [1] concerns U-251.
The subject of assay [2] is Malme-3M.
In assay [3] the test system is MDA-MB-435.
In assay [4] the test system is OVCAR-5.
Assay [5] concerns CAKI-1.
For assay [6], the system named is SK-OV-3.
Assay [7] concerns RXF 393.
Assay [8] deals with DU-145.
The subject of assay [9] is EKVX.
Assay [10] has as its system T47D.
In assay [11] the test system is OVCAR-4.
Assay [12] relates to NCI-H460.
Assay [13] deals with UACC-257.
Assay [14] concerns BT-549.
Assay [15] relates to A498.
Assay [16] concerns SR.
Assay [17] relates to COLO 205.
Assay [18] concerns ACHN.
In assay [19] the test system is Hs-578T.
Assay [20] relates to HOP-62.

For `CC(=O)OC(=C(C#N)C#N)c1nccnc1C(=O)O`, the GI50 in [1], in assay [2], in assay [3], in assay [4], in assay [5] and in [6] was > 100 µM (inactive) throughout. The GI50 in assay [7], in assay [8], in assay [9], in assay [10], in [11] and in assay [12] was > 100 µM (inactive) in each case. In addition, the GI50 in [13], in assay [14], in assay [15], in assay [16], in assay [17] and in [18] was > 100 µM (inactive) in each case. Further, the GI50 in [19] was > 100 µM (inactive).

For the compound `CC(C)CNP(=O)(NCC(C)C)Oc1ccc(CC(NC(=O)OCc2ccccc2)C(=O)OCc2ccccc2)cc1` (stereo unspecified), the GI50 in assay [1] is 16.5 µM (inactive); in [2] it was 19.1 µM (inactive); in assay [3], 10 µM (inactive); in [4], > 100 µM (inactive); in [5], > 100 µM (inactive); in assay [6], 15.2 µM (inactive). Besides, the GI50 in [7] was 18.5 µM (inactive); in [8], 9.46 µM (inactive); in assay [9], 34.8 µM (inactive); in assay [10], 13.4 µM (inactive); in assay [11], 18.3 µM (inactive); in assay [12], 18.1 µM (inactive). Also, the GI50 in assay [20] is 14.7 µM (inactive); in assay [13], 24.8 µM (inactive); in [14] it was 20.7 µM (inactive); in [15], 22.5 µM (inactive); in assay [16] it was 6.17 µM (inactive); in assay [17], 19.2 µM (inactive). Further, the GI50 in assay [18] was 16.9 µM (inactive); in assay [19], 28.4 µM (inactive).

For `Cn1c2ccc([N+](=O)[O-])cc2c(=O)c2c(O)cc(O)cc21`, the GI50 was 15.7 µM (inactive) in assay [1]; 18.6 µM (inactive) in [2]; > 100 µM (inactive) in assay [3]; > 100 µM (inactive) in assay [4]; 43 µM (inactive) in [5]; 25.7 µM (inactive) in assay [7]. The GI50 was 47.8 µM (inactive) in [8]; 5.94 µM (inactive) in [9]; 45.2 µM (inactive) in assay [10]; 31.2 µM (inactive) in assay [11]; 24.9 µM (inactive) in assay [12]; > 100 µM (inactive) in assay [13]. The GI50 is 28.4 µM (inactive) in assay [14]; > 100 µM (inactive) in assay [15]; 19.2 µM (inactive) in [16]; > 100 µM (inactive) in assay [17]; 33.1 µM (inactive) in [18]; 27.5 µM (inactive) in assay [19].

Take `COC(=O)N1N=C(c2ccccc2)C1c1ccccc1` (stereo unspecified): the GI50 in [1] is 42.7 µM (inactive); in assay [2], 40.7 µM (inactive); in assay [3], 33.7 µM (inactive); in assay [4], 78.5 µM (inactive); in assay [5], 33.6 µM (inactive); in [6] it was 69.3 µM (inactive). In addition, the GI50 was 31.7 µM (inactive) in assay [7]; 49.2 µM (inactive) in assay [8]; 42.5 µM (inactive) in assay [9]; 25.4 µM (inactive) in assay [10]; 25.8 µM (inactive) in assay [11]; 30.8 µM (inactive) in [12]. The GI50 is 24.5 µM (inactive) in assay [13]; 30.5 µM (inactive) in assay [14]; 24 µM (inactive) in assay [15]; 31.9 µM (inactive) in assay [16]; 27 µM (inactive) in [17]; 71 µM (inactive) in assay [19].

In the case of `C=C1C(=O)OC2CC(C)C3(O)CCC(=O)C3(C)CC12` (stereo unspecified), the GI50 was 38.1 µM (inactive) in [1]; 19.5 µM (inactive) in assay [2]; 39.7 µM (inactive) in [3]; 23.6 µM (inactive) in assay [4]; 17.5 µM (inactive) in [5]; 46.8 µM (inactive) in assay [6]. The GI50 in assay [7] was 21.8 µM (inactive); in assay [8] it was 31.9 µM (inactive); in assay [9], 27.2 µM (inactive); in assay [10], 40.4 µM (inactive); in [11] it was 18.7 µM (inactive); in assay [20] it was 28.2 µM (inactive). Moreover, the GI50 in assay [13] is 43.7 µM (inactive); in assay [14], 44.2 µM (inactive); in [15], 25.8 µM (inactive); in assay [16] it was 23.2 µM (inactive); in [17], 40 µM (inactive); in assay [18], 17.5 µM (inactive). In addition, the GI50 in assay [19] was 25.9 µM (inactive).

`CCN1CN(c2ccccc2)C2(CCN(CC(CC3OCCO3)c3ccc(F)cc3)CC2)C1=O` (stereo unspecified): the GI50 is 14.9 µM (inactive) in assay [1]; 19.7 µM (inactive) in assay [2]; 14.8 µM (inactive) in assay [3]; 6.5 µM (inactive) in assay [4]; 3.18 µM (inactive) in assay [5]; 39.8 µM (inactive) in [6]. The GI50 in assay [7] is 16.2 µM (inactive); in [8], 4.2 µM (inactive); in [9], 6.7 µM (inactive); in assay [10], 5.13 µM (inactive); in assay [11] it was 13.5 µM (inactive); in assay [12], 14.7 µM (inactive). The GI50 is 4.23 µM (inactive) in [20]; 2.79 µM (inactive) in assay [13]; 21.6 µM (inactive) in assay [14]; 3.63 µM (inactive) in assay [15]; 33 µM (inactive) in assay [16]; 0.703 µM (active) in assay [17]. The values for the GI50 in assay [18] and in [19] were 3.73 µM (inactive) and 29.9 µM (inactive), respectively.

As for `CC(=O)OCC(=O)[C@@]12OC(C)(C)O[C@@H]1C[C@H]1[C@@H]3CC=C4C[C@@H](O)CC[C@]4(C)[C@H]3CC[C@@]12C`, the GI50 is 58.6 µM (inactive) in assay [1]; > 100 µM (inactive) in assay [2]; > 100 µM (inactive) in [3]; > 100 µM (inactive) in assay [4]; > 100 µM (inactive) in assay [5]; 38.3 µM (inactive) in assay [6]. Moreover, the GI50 in assay [7] was 19.9 µM (inactive); in assay [8] it was 49.2 µM (inactive); in assay [9], 29.6 µM (inactive); in [10], 35.5 µM (inactive); in [11], > 100 µM (inactive); in assay [20], 32.2 µM (inactive). Besides, the GI50 in assay [13] was > 100 µM (inactive); in [14] it was 31.6 µM (inactive); in [15] it was 32.1 µM (inactive); in [16] it was > 100 µM (inactive); in [17] it was > 100 µM (inactive); in [18] it was 92.9 µM (inactive). Further, the GI50 in assay [19] was 22.4 µM (inactive).

In the case of `CCc1n[nH]c(=O)n1N1C(=O)C2CCCCC2C1=O` (stereo unspecified), the GI50 in assay [1], in assay [2], in assay [3], in [4], in assay [5] and in [6] was > 100 µM (inactive) each time. Besides, the GI50 in [7], in assay [8], in assay [9], in assay [10], in assay [11] and in assay [20] was > 100 µM (inactive) throughout. In addition, the GI50 in assay [13], in assay [14], in assay [15], in assay [16], in [17] and in assay [18] was > 100 µM (inactive) throughout. Further, the GI50 in assay [19] is > 100 µM (inactive).

For `CC1=CCC(C)=Nc2nc3ccccc3n21`, the GI50 in [1], in assay [2], in [3], in [4], in assay [5] and in assay [6] was > 100 µM (inactive) each time. In addition, the GI50 in assay [7], in assay [8], in [9], in [10], in [11] and in [12] was > 100 µM (inactive) each time. For the same compound, the GI50 in assay [20], in assay [13], in assay [14], in assay [15], in [16] and in assay [17] was > 100 µM (inactive) throughout. For the same compound, the GI50 in [18] and in assay [19] was > 100 µM (inactive) each time.

On to `CC(=O)OC1(C)CC(C)C(=O)C(C(O)CC2CC(=O)NC(=O)C2)C1` (stereo unspecified), for which the GI50 in [1] is 0.00697 µM (active); in assay [2], 0.0186 µM (active); in assay [3] it was 0.0148 µM (active); in [4], 0.0206 µM (active); in assay [5] it was 0.0875 µM (active); in assay [7] it was 0.01 µM (active). Moreover, the GI50 in assay [8] is 0.0118 µM (active); in assay [9] it was 0.0253 µM (active); in assay [10], 0.0179 µM (active); in [11], 0.0184 µM (active); in [12] it was 0.0121 µM (active); in assay [20] it was 0.0193 µM (active). The GI50 was 0.0262 µM (active) in assay [13]; 0.0334 µM (active) in assay [14]; 0.0201 µM (active) in assay [15]; 0.00185 µM (active) in assay [16]; 0.0108 µM (active) in assay [17]; 0.00743 µM (active) in assay [18]. In assay [19], the GI50 is 0.0223 µM (active).

For the origin of these results see ChEMBL document CHEMBL1201862, “PubChem BioAssay data set” (2004).
